This note sets out measurements from patent US20040106120A1, “Diagnosis and treatment of disease” (priority 2000, published 2004).

In assay [1] the test system is reconstituted human epidermis cultures (skin equivalents). The assay can be described thus: Treatment of skin equivalents (reconstituted human epidermis cultures) for 16 hours, light microscopy histology. The following applies: 16 hours at 37° C; for effect of cytokine on stratum corneum thickness of skin equivalent: 2.5 ng/ml added to medium; for effect of peptide on stratum corneum of skin equivalent: 6 μM peptide, 200 μl applied to surface, versus buffered salt solution. In kind it is cell-based. As for the experimental part:
1 ml of room temperature SkinEthic maintenance medium is added to each well of 6-well tissue culture plates (one well per skin equivalent). The cell culture inserts containing the skin equivalents are removed from the agarose transportation medium using sterile forceps and placed in the wells ensuring no air bubbles are formed. The well plates are placed in a humid incubator at 37° C., 5% CO2. After 24 hours the medium is changed and the appropriate treatment is applied. 200 μl of each treatment is applied to the surface of the skin equivalent as follows: Control—buffered salt solution; 10% foetal bovine serum; 0.25% chymotrypsin; 6 μM Peptide 643.
All reagents are made up to the correct concentration in a buffered salt solution comprising the following in 1 litre: 0.142 g Na2HPO4, 1.802 g Glucose, 7.149 g HEPES, 0.224 g KCl, 7.597 g NaCl, pH 7.4.
Treatments are allowed to act on the cultures for 16 hours at 37° C.
The skin equivalents and membranes are cut from the cell culture insert using a scalpel. The equivalents are fixed in 10% formalin (3.7% formaldehyde) in phosphate buffered saline for 24 hours at 4° C. Samples are washed in 3 changes of PBS. The PBS is the decanted from the samples which are dehydrated in 3×5 minute changes of 70% ethanol, 2×5 minute changes of 95% ethanol and 2×5 minute changes of 100% ethanol. The samples are then placed in xylene for 5 minutes and then molten paraffin for infiltration for 5 minutes. The samples are occasionally agitated during each of the steps. The equivalents are then oriented in more molten paraffin in an embedding mould and allowed to set for 1 hour.
5 μm sections are taken of each block and collected on glass microscope slides. The slides are dried at 50° C. overnight.
The slides are racked and placed in xylene for 2×5 minute washes to remove any unwanted paraffin. The slides are then rehydrated by placing them for 5 minutes in each of the following; 2×100% ethanol, 1×95% ethanol, 1×70% ethanol. The slides are then rinsed in running tap water for 1 minute. Staining is with Gill's haematoxylin (2 minutes) followed by rinsing in water for 2 minutes then placing in 1% eosin for 5 minutes and rinsing briefly in water. The samples are dehydrated once more by placing in 70% ethanol for 30 seconds, 95% ethanol for 30 seconds and 2 changes of 100% ethanol for 1 and 2 minutes each. The slides are then placed in xylene for 1 minute before mounting coverslips with DPX mountant for microscopy.
Slides are examined under light microscope at using the 40×objective lens and typical images are captured onto the PC using Synoptics Acquis Pro.
1 ml of room temperature SkinEthic maintenance medium is added to each well of 6-well tissue culture plates (one well per skin equivalent). The cell culture inserts containing the skin equivalents are removed from the agarose transportation medium using sterile forceps and placed in the wells ensuring no air bubbles are formed. The well plates are placed in a humid incubator at 37° C., 5% CO2. After 24 hours the medium is changed and the appropriate treatment is applied.
200 μl of the following treatments are applied to the surface of the skin equivalents: (1) Control—buffered salt solution; (2) 6 μM Peptide 641; (3) 6 μM Peptide 642; (4) 6 μM Peptide643; (5) 6 μM Peptide 651; (6) 6 μM Peptide 653.
The following treatments are diluted from stock solutions (10 μg/ml TNF-α, 1 μg/m IL-1β) directly into 1 ml of medium and added to the well during the medium change: (7) 2.5 ng/ml TNF-α; and (8) 75 ng/ml IL-1β.

The next assay addresses chymotrypsin (Bos taurus, UniProt P00766). The assay can be described thus: Chymotrypsin proteolysis of synthetic corneodesmosin peptides. In kind it is biochemical. The following applies: peptide exposed to chymotrypsin in appropriate buffer. An excerpt:
Peptides corresponding to fragments of corneodesmosin, and comprising amino acids at and around position 40 (L20815; corresponding to position 180 on the nucleotide sequence) are synthesised. The peptides are exposed to chymotrypsin in appropriate buffer, and the digestion products identified. Chymotrypsin is known to cleave the peptide bond C-terminal to a F, Y or W residue, but not C-terminal to an L residue.
Peptides P1 and P2 (size 38 amino acids, comprising L and F at position 40 of L20815 respectively) are exposed to chymotrypsin. Peptide P1 has the sequence PTRITSPNDPCL40[…], while peptide P2 has the sequence PTRITSPNDPCF40[…].
The above results are confirmed by using the ExPASy Molecular Biology Server at http://www.expasy.ch/.

For assay [2], the system named is psoriatic skin biopsy (stratum corneum). The assay can be described thus: Treatment of skin biopsies from psoriatic patients with protease, transmission electron microscopy. More on the design: species or system human. The conditions noted are these: 0.25% chymotrypsin, 16 hours at 37° C, versus untreated half. How it is done: All biopsies are carried out by a dermatologist in an operating theatre. Aseptic technique is employed and sterile/disposable equipment used throughout the procedure. Two skin biopsies are taken from the lower back of each patient, one from an area of active plaque psoriasis and the other from an uninvolved site at least 10 cm away. The lower back is cleaned with antiseptic solution and local anaesthetic introduced to the intended areas of biopsy. Ellipses approximately 1.5 cm by 0.5 cm are excised from both lesional and non-lesional skin and placed in a container with PBS solution. The wounds are sutured using catgut for deep sutures and ethilon for superficial sutures (employing two or three stitches per wound). After the operation the wounds are covered with a sterile dressing and the patient observed for 30 minutes before being allowed home. Sutures are removed two weeks later.
The following procedures are performed under aseptic conditions: The psoriatic skin biopsy is cut into 2 pieces using a sterile scalpel. One half of the biopsy is placed in 2 ml of 0.25% chymotrypsin (diluted from a 10×stock in skin maintenance medium, Skinethic) in one well of a 24-well plate. The other half is incubated in 2 ml of maintenance medium with no additions. […]
Ultrathin sections (70-90 nm) are cut on an ultramicrotome. […] Electron micrographs are recorded on Agfa Scientia 23D56 EM film.

As for “IL-1β: cytokine purchased from Calbiochem”, the “effect of cytokine on stratum corneum thickness of skin equivalent” value in assay [1] is “increase in the thickness of the stratum corneum”.

For the substance “NH2-cys-val-ser-pro-val-lys-ala-COOH (H-CVSPVKA-OH) [Peptide 643, fragment of SLPI (CVSPVKA)]”, the “effect of peptide on stratum corneum of skin equivalent” value (“effect of peptide” below) in assay [1] is “thickening of the stratum corneum”.

For the substance “NH2-leu-asp-pro-val-asp-COOH [Peptide 651]”, the “effect of peptide” value in assay [1] is given as “increase in the thickness of the stratum corneum”.

For the substance “NH2-leu-asp-pro-val-asp-thr-pro-asn-pro-thr-arg-arg-lys-pro-gly-COOH [Peptide 653]”, the “effect of peptide” value in assay [1] was “increase in the thickness of the stratum corneum”.

In the case of “NH2-met-glu-asn-ser-leu-gly-pro-phe-pro-gln-cys-COOH (H-MENSLGPFPQC-OH) [Peptide 641, fragment of Desmocollin 1 (…)]”, the “effect of peptide” value in assay [1] was “more permeable”.

As for “NH2-ser-gly-lys-arg-asp-lys-ser-glu-glu-val-gln-cys-COOH (H-SGKRDKSEEVQC-OH) [Peptide 642, fragment of Desmoplakin (…)]”, in assay [1], the “effect of peptide” value is on record as “more permeable”.

With “PTRITSPNDPCF40TGKGDSSGFSGSSSSGSSISSAR [peptide P2]”, on chymotrypsin, the “products of proteolysis by chymotrypsin” value is “three small peptides”.

For “PTRITSPNDPCL40TGKGDSSGFSGSSSSGSSISSAR [peptide P1]”, the “products of proteolysis by chymotrypsin” value on chymotrypsin is recorded as “two products of proteolysis”.

Turning to TNF-α, the “effect of cytokine on stratum corneum thickness of skin equivalent” value in assay [1] was “increase in the thickness of the stratum corneum”.

chymotrypsin: the “effect of protease on stratum corneum barrier of skin equivalent” value in assay [1] (applied to surface, chymotrypsin 0.25%) is “degrades the barrier of the stratum corneum”. In addition, in assay [2], the “corneodesmosomes visible in stratum corneum” value was “far fewer corneodesmosomes are visible” and the “stratum corneum morphology (corneocyte layers)” value was “splitting of the layers of corneocytes (acantholysis)”.
